This is an account of results in patent publication US4698352A, “4-oxo-1,4-dihydronicotinic acid derivatives, salts thereof, and antibacterial agents containing the same” (Toyama Chemical Co., Ltd., priority 1982, dated 1987).

Structures are written as SMILES. Bounds are passed on as bounds.

The nature of this series: Acute toxicity test (intravenous LD50). The settings on record: mouse, in vivo, mice (ICR strain, male, 18-24 g). An excerpt:
The LD50 values of the representative compounds of this invention when administered intravenously to mice (ICR strain, male, 18-24 g) are shown in Table 2.

Turning to `O=C(O)c1cn(-c2ccc(F)cc2)c(C=Cc2cccnc2)cc1=O` [drawing 215], the LD50 was > 200 mg/kg. In the case of `CN(C)c1ccc(-c2cc(=O)c(C(=O)O)cn2-c2ccc(O)cc2)cc1` [drawing 217] it was > 200 mg/kg. In the case of `O=C(O)c1cn(-c2ccc(F)cc2)c(-c2ccc(NCCO)cc2)cc1=O` [drawing 219] it was > 200 mg/kg.

Turning to `Cc1cc(O)ccc1-n1cc(C(=O)O)c(=O)cc1C1CCCCC1` [drawing 221], the LD50 is > 200 mg/kg.

The LD50 is the dose expected to kill half of the subjects tested. A high value points to a less toxic substance.
